Consider 18 molecules from paper PMC10330904 (Toxicology and applied pharmacology, 2023).

As a reminder, the IC50 is the concentration at which inhibition is half-maximal.

The structures appear in SMILES notation.

The first data set has as its system cell viability counter screens.
Conditions: not given
`O=C1C(Cl)=C(Cl)C(=O)c2ccccc21` [dichlone]: the “viability assay hit rate” value was determined as 97.56%. Still for that read-out and setting: next, `Cc1cc(C(C)(C)CC(C)(C)C)ccc1OCCOCC[N+](C)(C)Cc1ccccc1.[Cl-]` [methylbenzethonium chloride]: 97.56%. Still for that read-out and setting: as for `[H]/N=C(\N/C(=N/[H])NCCCCCCNC(=N)NC(=N)Nc1ccc(Cl)cc1)Nc1ccc(Cl)cc1` [chlorhexidine], the figure is 97.56%; as for `Oc1c(Cl)cc(Cl)c(Cl)c1Cc1c(O)c(Cl)cc(Cl)c1Cl` [hexachlorophene], 97.56%; as for `CC1=CC(=O)c2ccccc2C1=O` [menadione], 97.56%. Same read-out and setting: next, `Oc1c(Cl)cc(Cl)cc1Sc1cc(Cl)cc(Cl)c1O` [bithionol]: 98.78%; `Oc1cc(Cl)ccc1Oc1ccc(Cl)cc1Cl` [triclosan]: 97.56%.

For another data set, the system named is Acetylcholinesterase (AChE) (biochemical). As to conditions: cited from earlier work.
Consider `COP(N)(=S)Oc1ccccc1C(=O)OC(C)C` (centres unmarked) [Isocarbophos], for which the “tox21-ache-p5 (IC50)” value was “inactive”. For the molecule `CCOP(=S)(OCC)SCSC(C)(C)C` [Terbufos], the “tox21-ache-p5 (IC50)” value is “inactive”. As for `CCOP(=S)(OCC)SCn1c(=O)oc2cc(Cl)ccc21` [Phosalone], the “tox21-ache-p5 (IC50)” value is “inactive”. As to `CCOP(=S)(Oc1ccc([N+](=O)[O-])cc1)c1ccccc1` (centres unmarked), the “tox21-ache-p5 (IC50)” value was “inactive”.

The data set is the same for the next values; noted with them: read-out: tox21-ache-p5 (IC50); cited from earlier work.
As for `CCOP(=S)(OCC)Oc1cnc2ccccc2n1` [Quinalphos], the half-maximal inhibitory concentration (IC50) is 79.4 µM. As for `CCOP(=S)(OCC)SC(CCl)N1C(=O)c2ccccc2C1=O` (centres unmarked) [Dialifor], the concentration for half-maximal inhibition (IC50) is 63.1 µM. Regarding `CCOP(=S)(OCC)SCn1nnc2ccccc2c1=O` [Azinphos-ethyl], the IC50 was 35.5 µM. For `CCOP(=S)(OCC)Oc1ccc2c(C)c(Cl)c(=O)oc2c1` [Coumaphos], the concentration for half-maximal inhibition (IC50) is 53.7 µM. With `CCOP(=S)(OCC)Oc1nc(Cl)c(Cl)cc1Cl` [Chlorpyrifos], the IC50 was 79.4 µM. With `CCOP(=S)(OCC)Oc1ccc([N+](=O)[O-])cc1` [Parathion], the half-maximal inhibitory concentration (IC50) is 24.6 µM. In the case of `CCOP(=S)(OCC)O/N=C(\C#N)c1ccccc1` [Phoxim], the IC50 is 56.2 µM.

Another data set deals with Acetylcholinesterase (AChE) (with human microsomes). As to conditions: read-out: tox21-ms-ache-p2 (IC50); cited from earlier work.
For the molecule `CCOP(=S)(OCC)Oc1cnc2ccccc2n1` [Quinalphos], the half-maximal inhibitory concentration (IC50) was 1 µM. Consider `COP(N)(=S)Oc1ccccc1C(=O)OC(C)C` (centres unmarked) [Isocarbophos], for which the IC50 is 2.82 µM. As for `CCOP(=S)(OCC)SC(CCl)N1C(=O)c2ccccc2C1=O` (centres unmarked) [Dialifor], the IC50 was 1.41 µM. On to `CCOP(=S)(OCC)SCSC(C)(C)C` [Terbufos], for which the IC50 is 47.9 µM. `CCOP(=S)(OCC)SCn1c(=O)oc2cc(Cl)ccc21` [Phosalone]: the half-maximal inhibitory concentration (IC50) was 5.89 µM. On to `CCOP(=S)(OCC)SCn1nnc2ccccc2c1=O` [Azinphos-ethyl], for which the concentration for half-maximal inhibition (IC50) was 0.25 µM. On to `CCOP(=S)(OCC)Oc1ccc2c(C)c(Cl)c(=O)oc2c1` [Coumaphos], for which the IC50 was 1.07 µM. `CCOP(=S)(Oc1ccc([N+](=O)[O-])cc1)c1ccccc1` (centres unmarked): the IC50 was 2 µM. Turning to `CCOP(=S)(OCC)Oc1nc(Cl)c(Cl)cc1Cl` [Chlorpyrifos], the half-maximal inhibitory concentration (IC50) was 0.25 µM. `CCOP(=S)(OCC)Oc1ccc([N+](=O)[O-])cc1` [Parathion]: the IC50 is 0.74 µM. With `CCOP(=S)(OCC)O/N=C(\C#N)c1ccccc1` [Phoxim], the IC50 was 1.66 µM.
